Test system: not listed separately
Assay: DPPH free radical assay
Assay type: biochemical
Details: 540 nm, 30 min, relative to Trolox
Procedure: Preparation of samples was occurred at the following concentrations: Samples 3a, 4a, 5b, 5d and 5e at final concentrations of 0.5 mg/ml in methanol: DMSO 9:1 v/v. Samples 4b and 4d at final concentrations 0.025 mg/ml in methanol: DMSO 9:1 v/v, sample 5a at final concentrations 0.25 mg/ml in methanol: DMSO 9:1 v/v, Sample 4c, 5c and 4e at final concentrations 0.05 mg/ml in methanol: DMSO 9:1 v/v, sample 3b at final concentration 0.75 mg/ml methanol: DMSO 9:1 v/v. A stock solution of 100 µM concentration of Trolox, a standard used in this experiment, was prepared in methanol from which seven concentrations were prepared, including 50, 40, 30, 20, 15, 10 and 5 µM.
The DPPH (2,2-diphenyl-1-picryl-hydrazyl-hydrate) free radical assay was carried out according to the method of Boly et al. 2016[39]. Briefly, freshly prepared DPPH reagent (100 µl, 0.1% in methanol) was added to 100 µl of the sample on 96 well plates (n = 6). The reaction was incubated at room temp for 30 min in the dark. After completion of the incubation time, the reduction in DPPH colour intensity was measured at 540 nm. Data obtained was represented as means ± SD, according to the following equation, percentage inhibition = [(Average absorbance of blank – average absorbance of the test)/(Average absorbance of blank)] *100. The results were recorded using a microplate reader, FluoStar Omega.
Microsoft Excel® was used to analyse the obtained results. The IC50 values were calculated using Graph pad Prism 6® by converting the concentrations to their logarithmic value and selecting the non-linear inhibitor regression equation (log (inhibitor) vs. normalised response – variable slope equation). The methods used and the final test report (R-SO7320) were obtained from Nawah Scientific.

Compound | DPPH test results (µM trolox equivalent/ 1mg sample ± SD)
CS(=O)(=O)n1cc(/C=N/NC(N)=S)c2ccccc21 [Compound 4a, (E)-2{[1-(methylsulfonyl)-1H-indol-3yl]methylene}-hydrazine-1-carbothioamide] | 24.55 ± 1.61 µM trolox equivalent/ 1mg sample
CS(=O)(=O)n1cc(/C=N/NC(=S)Nc2ccccc2)c2ccccc21 [Compound 4c, (E)-2{[1-(methylsulfonyl)-1H-indol-3yl]methylene}-N-phenylhydrazinecarbothioamide] | 263.29 ± 12.30 µM trolox equivalent/ 1mg sample

Same assay, conditions: 540 nm, relative to Trolox; values in text

Compound | DPPH anti-oxidant activity
CS(=O)(=O)n1cc(/C=N/NC(=S)Nc2ccccc2)c2ccccc21 [Compound 4c, (E)-2{[1-(methylsulfonyl)-1H-indol-3yl]methylene}-N-phenylhydrazinecarbothioamide] | about 263.29 µM Trolox equivalent/mg

Biological target: T1, COX-2 (Ovis aries, UniProt P79208)
T1 sequence (P79208 17-603): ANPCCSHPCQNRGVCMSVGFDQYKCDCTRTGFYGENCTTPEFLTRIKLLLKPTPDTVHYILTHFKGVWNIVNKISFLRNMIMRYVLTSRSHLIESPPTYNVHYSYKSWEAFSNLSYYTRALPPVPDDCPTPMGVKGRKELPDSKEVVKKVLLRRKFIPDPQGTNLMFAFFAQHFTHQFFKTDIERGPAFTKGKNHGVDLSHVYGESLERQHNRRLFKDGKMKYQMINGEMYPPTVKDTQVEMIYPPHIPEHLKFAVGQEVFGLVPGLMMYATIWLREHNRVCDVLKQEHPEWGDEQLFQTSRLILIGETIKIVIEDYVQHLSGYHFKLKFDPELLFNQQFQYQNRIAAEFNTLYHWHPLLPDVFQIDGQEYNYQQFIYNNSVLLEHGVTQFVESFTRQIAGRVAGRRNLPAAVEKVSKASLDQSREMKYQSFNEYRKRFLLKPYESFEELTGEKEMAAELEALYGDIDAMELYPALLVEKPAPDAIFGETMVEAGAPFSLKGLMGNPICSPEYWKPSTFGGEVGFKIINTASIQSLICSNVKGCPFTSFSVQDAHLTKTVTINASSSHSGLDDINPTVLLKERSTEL
Assay: COX-2 inhibition, enzyme immune assay (EIA) kit
Assay type: biochemical, ovine
Details: COX-2 selectivity index

Compound | S.I (IC50 COX-1/IC50 COX-2)
CS(=O)(=O)n1cc(/C=N/NC(N)=S)c2ccccc21 [Compound 4a, (E)-2{[1-(methylsulfonyl)-1H-indol-3yl]methylene}-hydrazine-1-carbothioamide] | 2.80
CS(=O)(=O)n1cc(/C=N/NC(=S)Nc2ccccc2)c2ccccc21 [Compound 4c, (E)-2{[1-(methylsulfonyl)-1H-indol-3yl]methylene}-N-phenylhydrazinecarbothioamide] | 3.12

Same assay, conditions: lab report, COX1/COX2

Compound | SI
CS(=O)(=O)n1cc(/C=N/NC(N)=S)c2ccccc21 [Compound 4a, (E)-2{[1-(methylsulfonyl)-1H-indol-3yl]methylene}-hydrazine-1-carbothioamide] | 2.799
CS(=O)(=O)n1cc(/C=N/NC(=S)Nc2ccccc2)c2ccccc21 [Compound 4c, (E)-2{[1-(methylsulfonyl)-1H-indol-3yl]methylene}-N-phenylhydrazinecarbothioamide] | 3.116

Biological target: T2, 5-LOX enzyme (Homo sapiens, UniProt P09917)
T2 construct: purchased Cayman Chemical K980-100
T2 sequence (P09917 1-674): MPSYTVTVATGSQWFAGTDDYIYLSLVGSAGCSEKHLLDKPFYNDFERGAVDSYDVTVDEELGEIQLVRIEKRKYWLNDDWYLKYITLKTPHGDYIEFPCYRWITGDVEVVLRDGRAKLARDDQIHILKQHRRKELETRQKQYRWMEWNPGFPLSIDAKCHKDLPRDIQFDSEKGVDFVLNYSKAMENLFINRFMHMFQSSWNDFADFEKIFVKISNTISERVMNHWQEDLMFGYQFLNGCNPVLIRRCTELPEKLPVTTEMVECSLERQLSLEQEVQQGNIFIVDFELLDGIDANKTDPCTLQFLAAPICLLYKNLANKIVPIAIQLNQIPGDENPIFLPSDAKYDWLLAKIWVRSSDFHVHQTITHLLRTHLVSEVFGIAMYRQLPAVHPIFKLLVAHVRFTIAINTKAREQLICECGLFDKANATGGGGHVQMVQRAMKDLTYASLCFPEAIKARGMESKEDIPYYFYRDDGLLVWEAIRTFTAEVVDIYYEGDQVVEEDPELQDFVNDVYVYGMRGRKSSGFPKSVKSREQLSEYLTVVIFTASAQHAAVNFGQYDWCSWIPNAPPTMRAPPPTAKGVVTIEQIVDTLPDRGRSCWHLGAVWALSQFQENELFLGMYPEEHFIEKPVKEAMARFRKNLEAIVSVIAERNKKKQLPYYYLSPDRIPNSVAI
Assay: 5-LOX inhibition, Human Lipoxygenase Inhibitor Screening Assay (EIA) kit
Assay type: biochemical
Details: not given
Procedure: The ability of the test compounds to inhibit the 5-LOX enzyme (IC50 value, μM) was detected using the Cayman Human Lipoxygenase Inhibitor Screening Assay (EIA) kit (catalog no. K980-100, Cayman Chemical). The IC50 values of test compounds were measured in µM according to the manufacturer’s instructions and reported method.

Compound | IC50
CS(=O)(=O)n1cc(/C=N/NC(N)=S)c2ccccc21 [Compound 4a, (E)-2{[1-(methylsulfonyl)-1H-indol-3yl]methylene}-hydrazine-1-carbothioamide] | 2.31 ± 0.12 µM
CS(=O)(=O)n1cc(/C=N/NC(=S)Nc2ccccc2)c2ccccc21 [Compound 4c, (E)-2{[1-(methylsulfonyl)-1H-indol-3yl]methylene}-N-phenylhydrazinecarbothioamide] | 4.03 ± 0.21 µM

Same assay, conditions: conc 0.1 (μM)

Compound | 5-LOX %inh
CS(=O)(=O)n1cc(/C=N/NC(N)=S)c2ccccc21 [Compound 4a, (E)-2{[1-(methylsulfonyl)-1H-indol-3yl]methylene}-hydrazine-1-carbothioamide] | 11.4%
CS(=O)(=O)n1cc(/C=N/NC(=S)Nc2ccccc2)c2ccccc21 [Compound 4c, (E)-2{[1-(methylsulfonyl)-1H-indol-3yl]methylene}-N-phenylhydrazinecarbothioamide] | 12.1%

Same assay, conditions: conc 1 (μM)

Compound | 5-LOX %inh
CS(=O)(=O)n1cc(/C=N/NC(N)=S)c2ccccc21 [Compound 4a, (E)-2{[1-(methylsulfonyl)-1H-indol-3yl]methylene}-hydrazine-1-carbothioamide] | 43.6%
CS(=O)(=O)n1cc(/C=N/NC(=S)Nc2ccccc2)c2ccccc21 [Compound 4c, (E)-2{[1-(methylsulfonyl)-1H-indol-3yl]methylene}-N-phenylhydrazinecarbothioamide] | 37.1%

Same assay, conditions: conc 10 (μM)

Compound | 5-LOX %inh
CS(=O)(=O)n1cc(/C=N/NC(N)=S)c2ccccc21 [Compound 4a, (E)-2{[1-(methylsulfonyl)-1H-indol-3yl]methylene}-hydrazine-1-carbothioamide] | 69%
CS(=O)(=O)n1cc(/C=N/NC(=S)Nc2ccccc2)c2ccccc21 [Compound 4c, (E)-2{[1-(methylsulfonyl)-1H-indol-3yl]methylene}-N-phenylhydrazinecarbothioamide] | 57.1%

Same assay, conditions: conc 100 (μM)

Compound | 5-LOX %inh
CS(=O)(=O)n1cc(/C=N/NC(N)=S)c2ccccc21 [Compound 4a, (E)-2{[1-(methylsulfonyl)-1H-indol-3yl]methylene}-hydrazine-1-carbothioamide] | 90.3%
CS(=O)(=O)n1cc(/C=N/NC(=S)Nc2ccccc2)c2ccccc21 [Compound 4c, (E)-2{[1-(methylsulfonyl)-1H-indol-3yl]methylene}-N-phenylhydrazinecarbothioamide] | 83.8%

Same assay, conditions: lab report

Compound | IC50
CS(=O)(=O)n1cc(/C=N/NC(N)=S)c2ccccc21 [Compound 4a, (E)-2{[1-(methylsulfonyl)-1H-indol-3yl]methylene}-hydrazine-1-carbothioamide] | 2.31 ± 0.12 µM
CS(=O)(=O)n1cc(/C=N/NC(=S)Nc2ccccc2)c2ccccc21 [Compound 4c, (E)-2{[1-(methylsulfonyl)-1H-indol-3yl]methylene}-N-phenylhydrazinecarbothioamide] | 4.03 ± 0.21 µM

Test system: not given
Assay: not given
Details: not given

Compound | melting point
CS(=O)(=O)n1cc(/C=N/NC(N)=S)c2ccccc21 [Compound 4a, (E)-2{[1-(methylsulfonyl)-1H-indol-3yl]methylene}-hydrazine-1-carbothioamide] | 178 to 180 °C
CS(=O)(=O)n1cc(/C=N/NC(=S)Nc2ccccc2)c2ccccc21 [Compound 4c, (E)-2{[1-(methylsulfonyl)-1H-indol-3yl]methylene}-N-phenylhydrazinecarbothioamide] | 220 to 222 °C

Biological target: T3, ovine COX-1 (Ovis aries, UniProt P05979)
T3 sequence (P05979 25-600): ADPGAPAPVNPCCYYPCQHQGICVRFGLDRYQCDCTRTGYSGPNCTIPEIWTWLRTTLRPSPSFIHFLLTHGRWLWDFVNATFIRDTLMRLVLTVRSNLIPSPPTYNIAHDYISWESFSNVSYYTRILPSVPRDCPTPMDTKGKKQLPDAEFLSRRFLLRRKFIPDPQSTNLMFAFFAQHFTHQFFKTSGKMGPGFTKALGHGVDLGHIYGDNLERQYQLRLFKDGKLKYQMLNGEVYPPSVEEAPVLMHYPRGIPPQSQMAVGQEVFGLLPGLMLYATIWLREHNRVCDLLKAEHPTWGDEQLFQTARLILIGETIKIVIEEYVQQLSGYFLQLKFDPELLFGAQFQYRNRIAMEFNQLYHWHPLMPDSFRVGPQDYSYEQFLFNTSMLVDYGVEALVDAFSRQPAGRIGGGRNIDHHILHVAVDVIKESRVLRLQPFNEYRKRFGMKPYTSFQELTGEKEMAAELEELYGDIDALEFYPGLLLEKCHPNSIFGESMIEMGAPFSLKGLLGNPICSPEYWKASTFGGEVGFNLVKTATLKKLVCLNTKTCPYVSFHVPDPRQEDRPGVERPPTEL
Assay: COX-1 inhibition, enzyme immune assay (EIA) kit
Details: IC50 COX-1
Excerpt: Colorimetric enzyme immunoassay (EIA) kits were done to screen for the isozyme-specific inhibition.

Compound | IC50
CS(=O)(=O)n1cc(/C=N/NC(N)=S)c2ccccc21 [Compound 4a, (E)-2{[1-(methylsulfonyl)-1H-indol-3yl]methylene}-hydrazine-1-carbothioamide] | 11.3 ± 0.32 µM
CS(=O)(=O)n1cc(/C=N/NC(=S)Nc2ccccc2)c2ccccc21 [Compound 4c, (E)-2{[1-(methylsulfonyl)-1H-indol-3yl]methylene}-N-phenylhydrazinecarbothioamide] | 5.01 ± 0.14 µM

Same assay, conditions: conc 0.1 (μM)

Compound | COX1 %inh
CS(=O)(=O)n1cc(/C=N/NC(N)=S)c2ccccc21 [Compound 4a, (E)-2{[1-(methylsulfonyl)-1H-indol-3yl]methylene}-hydrazine-1-carbothioamide] | 7.54%
CS(=O)(=O)n1cc(/C=N/NC(=S)Nc2ccccc2)c2ccccc21 [Compound 4c, (E)-2{[1-(methylsulfonyl)-1H-indol-3yl]methylene}-N-phenylhydrazinecarbothioamide] | 11%

Same assay, conditions: conc 1 (μM)

Compound | COX1 %inh
CS(=O)(=O)n1cc(/C=N/NC(N)=S)c2ccccc21 [Compound 4a, (E)-2{[1-(methylsulfonyl)-1H-indol-3yl]methylene}-hydrazine-1-carbothioamide] | 18.6%
CS(=O)(=O)n1cc(/C=N/NC(=S)Nc2ccccc2)c2ccccc21 [Compound 4c, (E)-2{[1-(methylsulfonyl)-1H-indol-3yl]methylene}-N-phenylhydrazinecarbothioamide] | 24.7%

Same assay, conditions: conc 10 (μM)

Compound | COX1 %inh
CS(=O)(=O)n1cc(/C=N/NC(N)=S)c2ccccc21 [Compound 4a, (E)-2{[1-(methylsulfonyl)-1H-indol-3yl]methylene}-hydrazine-1-carbothioamide] | 44%
CS(=O)(=O)n1cc(/C=N/NC(=S)Nc2ccccc2)c2ccccc21 [Compound 4c, (E)-2{[1-(methylsulfonyl)-1H-indol-3yl]methylene}-N-phenylhydrazinecarbothioamide] | 60.6%

Same assay, conditions: conc 100 (μM)

Compound | COX1 %inh
CS(=O)(=O)n1cc(/C=N/NC(N)=S)c2ccccc21 [Compound 4a, (E)-2{[1-(methylsulfonyl)-1H-indol-3yl]methylene}-hydrazine-1-carbothioamide] | 77.6%
CS(=O)(=O)n1cc(/C=N/NC(=S)Nc2ccccc2)c2ccccc21 [Compound 4c, (E)-2{[1-(methylsulfonyl)-1H-indol-3yl]methylene}-N-phenylhydrazinecarbothioamide] | 83.5%
